According to patent US9757332B2, “Gel-like composition having high ubiquinol content” (UHA Mikakuto Co., Ltd., priority 2013, dated 2017):

Assay: Observation of particles under optical microscope (Test Example I-4)
Format: physicochemical
Conditions: magnification of 400 times

## COc1c(O)c(C)c(C/C=C(\C)CC/C=C(\C)CC/C=C(\C)CC/C=C(\C)CC/C=C(\C)CC/C=C(\C)CC/C=C(\C)CC/C=C(\C)CC/C=C(\C)CCC=C(C)C)c(O)c1OC [ubiquinol powder (Kaneka QH), ubiquinol]
  crystals observed under optical microscope: irregular crystal structure
